# Key:
# MV4-11 = experiment: Antiproliferative activity against human MV411 cell spheroids; assay type: functional, cell-based
# [1] = target: T1, Menin/Histone-lysine N-methyltransferase MLL (Homo sapiens, UniProt O00255); experiment: Inhibition of menin-MLL1 (unknown origin) protein-protein interaction by fluorescence polarization assay
# MOLM-14 = experiment: Antiproliferative activity against human MOLM14 cell spheroids; assay type: functional, cell-based
# [2] = target: T1, Menin/Histone-lysine N-methyltransferase MLL; experiment: Inhibition of menin-MLL1 (unknown origin) protein-protein interaction by HTRF assay
# T1 sequence (O00255 whole entry): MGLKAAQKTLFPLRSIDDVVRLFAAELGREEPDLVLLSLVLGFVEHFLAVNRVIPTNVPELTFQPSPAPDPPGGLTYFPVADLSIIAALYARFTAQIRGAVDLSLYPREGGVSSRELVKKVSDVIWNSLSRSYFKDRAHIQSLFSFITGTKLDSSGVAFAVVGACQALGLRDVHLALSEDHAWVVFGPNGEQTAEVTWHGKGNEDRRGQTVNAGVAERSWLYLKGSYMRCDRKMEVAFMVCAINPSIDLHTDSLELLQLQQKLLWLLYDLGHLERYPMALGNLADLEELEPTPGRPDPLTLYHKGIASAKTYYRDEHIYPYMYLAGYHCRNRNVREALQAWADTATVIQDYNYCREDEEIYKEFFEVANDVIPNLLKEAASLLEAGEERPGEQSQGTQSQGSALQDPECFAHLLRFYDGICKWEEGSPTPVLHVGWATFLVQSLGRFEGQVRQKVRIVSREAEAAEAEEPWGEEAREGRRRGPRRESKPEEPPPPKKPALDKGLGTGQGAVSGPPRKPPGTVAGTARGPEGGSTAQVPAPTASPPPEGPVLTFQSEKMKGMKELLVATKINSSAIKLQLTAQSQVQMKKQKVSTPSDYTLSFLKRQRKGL
# T1 sequence (Q03164 1-2718 partner limits assumed): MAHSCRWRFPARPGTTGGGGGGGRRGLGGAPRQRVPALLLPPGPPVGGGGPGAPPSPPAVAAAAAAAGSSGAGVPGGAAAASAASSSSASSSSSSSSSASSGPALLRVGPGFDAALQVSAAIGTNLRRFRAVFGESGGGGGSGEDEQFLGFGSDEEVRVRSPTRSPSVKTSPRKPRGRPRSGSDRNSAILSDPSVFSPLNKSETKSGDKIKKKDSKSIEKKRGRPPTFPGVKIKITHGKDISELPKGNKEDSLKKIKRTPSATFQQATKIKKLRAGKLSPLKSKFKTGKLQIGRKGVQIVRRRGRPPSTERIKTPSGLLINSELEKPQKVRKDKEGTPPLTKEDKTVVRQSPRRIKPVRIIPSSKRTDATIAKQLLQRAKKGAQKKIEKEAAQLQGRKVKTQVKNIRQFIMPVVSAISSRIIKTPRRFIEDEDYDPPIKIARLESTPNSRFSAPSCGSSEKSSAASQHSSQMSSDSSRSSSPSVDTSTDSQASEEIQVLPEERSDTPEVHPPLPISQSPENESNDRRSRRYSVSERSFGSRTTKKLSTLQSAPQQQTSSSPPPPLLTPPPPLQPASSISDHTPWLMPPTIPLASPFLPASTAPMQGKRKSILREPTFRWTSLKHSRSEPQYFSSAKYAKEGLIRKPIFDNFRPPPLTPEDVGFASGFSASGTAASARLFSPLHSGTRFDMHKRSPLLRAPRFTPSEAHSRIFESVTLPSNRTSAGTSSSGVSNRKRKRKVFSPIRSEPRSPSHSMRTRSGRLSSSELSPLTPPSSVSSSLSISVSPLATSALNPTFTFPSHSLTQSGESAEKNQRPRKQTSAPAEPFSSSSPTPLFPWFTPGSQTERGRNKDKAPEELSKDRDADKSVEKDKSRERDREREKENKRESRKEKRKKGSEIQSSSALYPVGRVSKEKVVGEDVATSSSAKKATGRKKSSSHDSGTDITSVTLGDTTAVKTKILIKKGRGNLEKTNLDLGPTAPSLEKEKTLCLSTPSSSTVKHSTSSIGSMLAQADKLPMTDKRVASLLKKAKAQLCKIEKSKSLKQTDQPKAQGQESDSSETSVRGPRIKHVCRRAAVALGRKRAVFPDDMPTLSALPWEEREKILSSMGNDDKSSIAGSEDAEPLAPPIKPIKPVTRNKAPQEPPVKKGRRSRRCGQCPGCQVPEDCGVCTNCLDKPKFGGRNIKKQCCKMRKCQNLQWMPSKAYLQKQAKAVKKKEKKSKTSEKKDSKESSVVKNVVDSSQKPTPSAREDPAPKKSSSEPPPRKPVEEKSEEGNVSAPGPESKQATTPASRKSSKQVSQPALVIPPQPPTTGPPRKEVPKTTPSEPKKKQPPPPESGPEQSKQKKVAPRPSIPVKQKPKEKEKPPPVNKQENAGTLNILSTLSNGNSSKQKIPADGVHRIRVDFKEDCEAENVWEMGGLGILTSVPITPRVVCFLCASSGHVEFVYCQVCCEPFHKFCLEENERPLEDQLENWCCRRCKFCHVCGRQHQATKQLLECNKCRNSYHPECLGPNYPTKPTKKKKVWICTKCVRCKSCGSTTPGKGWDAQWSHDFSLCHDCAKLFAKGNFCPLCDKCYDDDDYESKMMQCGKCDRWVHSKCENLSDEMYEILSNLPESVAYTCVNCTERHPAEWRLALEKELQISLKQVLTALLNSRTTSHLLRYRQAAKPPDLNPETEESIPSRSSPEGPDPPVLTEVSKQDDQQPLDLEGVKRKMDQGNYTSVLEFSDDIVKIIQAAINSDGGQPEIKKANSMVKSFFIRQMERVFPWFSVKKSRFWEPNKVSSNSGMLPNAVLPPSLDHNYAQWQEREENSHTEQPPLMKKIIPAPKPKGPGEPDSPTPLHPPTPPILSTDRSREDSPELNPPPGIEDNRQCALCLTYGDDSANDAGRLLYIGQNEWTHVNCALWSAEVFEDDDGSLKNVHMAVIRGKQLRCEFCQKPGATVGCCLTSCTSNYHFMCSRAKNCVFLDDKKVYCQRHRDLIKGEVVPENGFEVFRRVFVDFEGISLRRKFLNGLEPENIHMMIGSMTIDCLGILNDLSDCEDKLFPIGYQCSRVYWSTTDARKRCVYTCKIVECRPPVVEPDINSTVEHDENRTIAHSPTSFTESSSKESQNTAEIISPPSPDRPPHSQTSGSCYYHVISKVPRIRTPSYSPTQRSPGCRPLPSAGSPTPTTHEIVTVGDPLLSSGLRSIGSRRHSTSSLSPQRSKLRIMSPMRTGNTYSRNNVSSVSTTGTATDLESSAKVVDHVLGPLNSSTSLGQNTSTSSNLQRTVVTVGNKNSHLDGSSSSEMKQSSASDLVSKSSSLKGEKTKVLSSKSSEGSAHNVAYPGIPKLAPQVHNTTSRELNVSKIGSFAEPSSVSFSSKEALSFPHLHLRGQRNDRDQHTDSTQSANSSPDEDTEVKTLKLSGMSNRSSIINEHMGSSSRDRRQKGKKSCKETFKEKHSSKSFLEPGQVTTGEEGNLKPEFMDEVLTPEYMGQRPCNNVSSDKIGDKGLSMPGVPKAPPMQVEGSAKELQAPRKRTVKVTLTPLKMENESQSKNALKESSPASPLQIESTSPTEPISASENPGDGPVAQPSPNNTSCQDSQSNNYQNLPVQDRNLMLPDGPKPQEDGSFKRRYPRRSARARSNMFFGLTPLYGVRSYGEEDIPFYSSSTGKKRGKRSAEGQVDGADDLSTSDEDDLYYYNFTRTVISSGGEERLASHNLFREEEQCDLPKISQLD
# T1 sequence (Q03164 2719-3969 partner limits assumed): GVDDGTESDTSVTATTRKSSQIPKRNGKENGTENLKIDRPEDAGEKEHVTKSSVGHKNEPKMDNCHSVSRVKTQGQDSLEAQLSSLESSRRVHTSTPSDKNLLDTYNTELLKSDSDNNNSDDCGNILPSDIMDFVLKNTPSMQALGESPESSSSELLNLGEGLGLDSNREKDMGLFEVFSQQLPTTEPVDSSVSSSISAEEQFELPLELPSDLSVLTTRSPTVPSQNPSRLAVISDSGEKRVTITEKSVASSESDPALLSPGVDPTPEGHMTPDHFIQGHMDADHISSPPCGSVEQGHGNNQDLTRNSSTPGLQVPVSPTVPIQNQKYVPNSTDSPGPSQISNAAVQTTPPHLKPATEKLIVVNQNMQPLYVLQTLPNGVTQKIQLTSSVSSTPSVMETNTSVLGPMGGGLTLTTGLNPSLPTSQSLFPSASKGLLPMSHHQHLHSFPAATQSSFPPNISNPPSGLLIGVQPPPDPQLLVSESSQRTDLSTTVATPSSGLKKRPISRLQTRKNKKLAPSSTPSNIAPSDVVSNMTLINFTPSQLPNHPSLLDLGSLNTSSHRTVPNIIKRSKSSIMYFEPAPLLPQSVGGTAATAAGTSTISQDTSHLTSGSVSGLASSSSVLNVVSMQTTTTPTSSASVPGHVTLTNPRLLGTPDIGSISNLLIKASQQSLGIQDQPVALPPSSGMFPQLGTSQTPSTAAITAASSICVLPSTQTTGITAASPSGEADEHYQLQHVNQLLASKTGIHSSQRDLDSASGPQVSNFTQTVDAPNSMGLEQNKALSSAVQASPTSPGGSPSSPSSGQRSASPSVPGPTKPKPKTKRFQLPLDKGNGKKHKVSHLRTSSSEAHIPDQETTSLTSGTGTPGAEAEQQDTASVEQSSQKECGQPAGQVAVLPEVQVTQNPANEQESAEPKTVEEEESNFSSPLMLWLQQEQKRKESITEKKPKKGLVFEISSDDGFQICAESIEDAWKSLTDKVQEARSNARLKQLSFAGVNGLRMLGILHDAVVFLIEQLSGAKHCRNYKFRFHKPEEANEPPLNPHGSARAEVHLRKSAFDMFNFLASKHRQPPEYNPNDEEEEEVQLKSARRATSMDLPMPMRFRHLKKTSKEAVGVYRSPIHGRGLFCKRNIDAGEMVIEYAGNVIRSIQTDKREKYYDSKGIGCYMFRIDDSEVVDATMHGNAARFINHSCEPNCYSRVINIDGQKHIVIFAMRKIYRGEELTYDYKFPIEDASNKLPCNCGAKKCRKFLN
SMILES,IC50 (MV4-11) [nM],IC50 [1] [nM],IC50 (MOLM-14) [nM],IC50 [2] [nM]
CC(C)[C@@H](C1CNC1)N1CC2(CCN(c3ncnc4sc(CC(F)(F)F)cc34)C2)C1,3400,110,10300,190
FC(F)(F)Cc1cc2c(N3CCC4(CN(Cc5ccccc5)C4)C3)ncnc2s1,3700,56,4600,144
FC(F)(F)Cc1cc2c(N3CCCC4(CCN(Cc5ccccc5)C4)C3)ncnc2s1 (centres undefined),3900,140,7700,227
CC(C)[C@H](C1CNC1)N1CC2(CCN(c3ncnc4sc(CC(F)(F)F)cc34)C2)C1,80,21,860,8
O=C([C@@H]1CC2(CC2)CN1)N1CC2(CCN(c3ncnc4sc(CC(F)(F)F)cc34)C2)C1,2600,92,11300,102
Cn1cc2c(n1)CCCC2N1CC2(CCN(c3ncnc4sc(CC(F)(F)F)cc34)C2)C1 (centres undefined),2100,120,> 15000,385
